From patent US20230183243A1, “HETEROARYL DERIVATIVES AND PHARMACEUTICAL COMPOSITION COMPRISING SAME AS ACTIVE INGREDIENT” (VORONOI INC., priority 2019, published 2023)

How the values were obtained:
MDA-MB-231 cells = test: Inhibition of proliferation of triple-negative breast cancer cells, CellTiter-Glo; assay type: cell-based; conditions: Homo sapiens, 120 h; MDA-MB-231, cultured for 5 days
Outline: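 MDA-MB-231 cells pre-cultured 24 h (5% CO2, 37 °C), then exposed to compound for 5 days at 12 three-fold dilutions, final 10 μM to 0.05 nM. Viability read by CellTiter-Glo luminescence after 10 min at 37 °C; growth inhibition calculated relative to untreated solvent-control cells.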

SHP-77 = test: Inhibition of proliferation of small cell lung cancer cells, CellTiter-Glo; assay type: cell-based; conditions: Homo sapiens, SHP77, 120 h; SHP-77, cultured for 5 days
Protocol: Specifically, the following test was performed to evaluate the inhibitory activity of the compound according to the present invention against the cell proliferation in the SCLC cells.
To check an inhibitory ability of cell growth in one SCLC cell line, a test was performed as follows. Cells were seeded in 180 μL of a culture broth at a density of 2,000 to 3,000 cells/well in a white clear bottom 96-well plate (Corning) according to the growth ability of each cell, and then cultured for 24 hours under conditions of 5% CO2 and 37° C. Thereafter, the compound was prepared by diluting a 10 mM stock solution three-fold with 100% DMSO at a total of 12 concentrations so that a peak concentration of the compound was in a range of 10 mM to 0.05 μM, and the diluted compound was then diluted in each cell culture medium so that a final concentration of the compound was in a range of 100 μM to 0.5 nM. 20 μL of a diluted solution diluted with a medium was added to the cell solution in which cells were seeded in the 96-well plate on the previous day so that a final concentration of the diluted solution was in a range of 10 μM to 0.05 nM. Each of the cells was cultured for 5 days. To check cell viability, a mixture provided in aCellTiter-Glo® Luminescent Cell Viability Assay Kit (Promega) was added to each of the cultured cell media, and cultured for another 10 minutes under a condition of 37° C. Then, a degree of luminescence (fluorescence) was measured. A degree of inhibition of the cell growth according to the treatment concentration of each of the compounds was calculated based on the fluorescence of the solvent control cells which were not treated with the compound. In this case, the concentration of each of the compounds inhibiting 50% of the cell growth was determined to be a GI50 (nM) value, and calculated using Prism (Version 7.01; GraphPad) software.

TTK = molecular target: T1, TTK (Homo sapiens, UniProt P33981); test: TTK enzyme activity, ADP-Glo kinase assay; assay type: biochemical; set-up: purchased SignalChem T20-10G; conditions: purified human TTK, ATP 10 μM, 25° C., 2 hours
T1 sequence (P33981 1-857): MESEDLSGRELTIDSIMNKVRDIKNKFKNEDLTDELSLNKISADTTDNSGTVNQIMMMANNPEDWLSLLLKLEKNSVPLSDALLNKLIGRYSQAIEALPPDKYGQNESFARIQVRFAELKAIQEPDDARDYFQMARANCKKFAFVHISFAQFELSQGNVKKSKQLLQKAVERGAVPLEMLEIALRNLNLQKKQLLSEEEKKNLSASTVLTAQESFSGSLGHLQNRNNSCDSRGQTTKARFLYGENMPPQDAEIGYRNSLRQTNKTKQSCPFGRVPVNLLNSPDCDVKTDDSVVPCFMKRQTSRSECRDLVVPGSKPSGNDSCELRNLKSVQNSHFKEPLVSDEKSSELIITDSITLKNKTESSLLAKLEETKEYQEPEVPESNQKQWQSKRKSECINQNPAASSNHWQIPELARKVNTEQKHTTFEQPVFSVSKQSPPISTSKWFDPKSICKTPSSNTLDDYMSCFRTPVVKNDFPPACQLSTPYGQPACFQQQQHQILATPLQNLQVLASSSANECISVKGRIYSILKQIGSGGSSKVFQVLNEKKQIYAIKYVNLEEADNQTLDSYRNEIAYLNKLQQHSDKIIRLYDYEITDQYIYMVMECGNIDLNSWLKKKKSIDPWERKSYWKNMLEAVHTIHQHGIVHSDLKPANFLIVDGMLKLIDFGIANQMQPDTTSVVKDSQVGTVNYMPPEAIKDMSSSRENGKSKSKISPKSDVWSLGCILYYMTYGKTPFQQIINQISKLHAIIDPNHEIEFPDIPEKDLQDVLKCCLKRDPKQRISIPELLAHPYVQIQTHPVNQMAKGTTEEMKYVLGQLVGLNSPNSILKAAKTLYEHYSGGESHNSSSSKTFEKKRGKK
Outline: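 ADP-Glo read-out; percent inhibition at each compound concentration was relative to the solvent-only control. The reactions contained 25 ng enzyme, 0.2 μg substrate and 10 μM ATP in 40 mM Tris-HCl pH 7.4 with 20 mM MgCl2, 0.5 mg/mL BSA and 50 μM DTT, and ran 2 h at 25 °C.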

SMILES | GI50 (MDA-MB-231 cells) | GI50 (SHP-77) | IC50 (TTK)
COc1cc(N2CCCS2(=O)=O)ccc1Nc1nc(NC2CCOCC2)c2c(C(F)(F)F)c[nH]c2n1 [Example 174, 2-(3-methoxy-4-((4-((tetrahydro-2H-pyran-4-yl)amino)-5-(trifluoromethyl)-7H-pyrrolo[2,3-d]pyrimidin-2-yl)amino)phenyl)isot hiazolidine 1,1-dioxide] | < 0.1 µM | < 0.1 µM | < 0.05 µM
COc1cc(-c2cnn(C)c2)ccc1Nc1nc(NC2CCOCC2)c2c(C(F)(F)F)c[nH]c2n1 [Example 118, N^2-(2-methoxy-4-(1-methyl-1H-pyrazol-4-yl)phenyl)-N^4-(tetrahydro-2H-pyran-4-yl)-5-(trifluoromethy1)-7H-pyrrolo[2,3-d] pyrimidine-2,4-diamine] | < 0.1 µM | < 0.1 µM | < 0.05 µM
COc1cc(N2CCCCS2(=O)=O)ccc1Nc1nc(NC2CCCC2)c2c(C(F)(F)F)c[nH]c2n1 [Example 177, 2-(4-((4-(cyclopentylamino)-5-(trifluoromethyl)-7H-pyrrolo[2,3-d]pyrimidin-2-yl)amino)-3-methoxyphenyl)-1,2-thiazinane 1,1-dioxide] | 0.1 to 1 µM | 0.1 to 1 µM | 0.05 to 0.2 µM
COc1cc(-c2nncn2C)ccc1Nc1nc(NC2CCOCC2)c2c(C(F)(F)F)c[nH]c2n1 [Example 117, N^2-(2-methoxy-4-(4-methyl-4H-1,2,4-triazol-3-yl)phenyl)-N^4-(tetrahydro-2H-pyran-4-yl)-5-(trifluoromethyl)-7H-pyrrolo[2,3-d] pyrimidine-2,4-diamine] | < 0.1 µM | < 0.1 µM | < 0.05 µM
COc1cc(Nc2nc(NC3CCCC3)c3c(C#N)c[nH]c3n2)ccc1-c1cnn(C)c1 [Example 136, 4-(cyclopentylamino)-2-((3-methoxy-4-(1-methyl-1H-pyrazol-4-yl)phenyl)amino)-7H-pyrrolo[2,3-d] pyrimidine-5-carbonitrile] | < 0.1 µM | < 0.1 µM | 0.05 to 0.2 µM
COCCNc1nc(Nc2ccc(-c3c(C)noc3C)cc2OC)nc2[nH]cc(C#N)c12 [Example 96] | < 0.1 µM | < 0.1 µM | < 0.05 µM
CC1(C)CC(Nc2nc(Nc3cccc4c3OCCO4)nc3[nH]cc(C#N)c23)CCO1 (stereo not drawn) [Example 171] | < 0.1 µM | < 0.1 µM | < 0.05 µM
COc1cc(-c2cnn(C)c2)ccc1Nc1nc(NC2CCOC(C)(C)C2)c2c(C#N)c[nH]c2n1 (stereo not drawn) [Example 144, 4-((2,2-dimethyltetrahydro-2H-pyran-4-yl)amino)-2-((2-methoxy-4-(1-methyl-1H-pyrazol-4-yl)phenyl)amino)-7H-pyrrolo[2,3-d] pyrimidine-5-carbonitrile] | < 0.1 µM | < 0.1 µM | < 0.05 µM
COc1cc(-c2c(C)noc2C)ccc1Nc1nc(NC2CCCCCC2)c2c(C#N)c[nH]c2n1 [Example 149, 4-(cycloheptylamino)-2-((4-(3,5-dimethylisoxazol-4-yl)-2-methoxyphenyl)amino)-7H-pyrrolo[2,3-d] pyrimidine-5-carbonitrile] | < 0.1 µM | < 0.1 µM | 0.05 to 0.2 µM
N#Cc1c[nH]c2nc(Nc3ccc(N4CCCCS4(=O)=O)cc3)nc(NC3CCOCC3)c12 [Example 164, 2-((4-(1,1-dioxido-1,2-thiazinan-2-yl)phenyl)amino)-4-((tetrahydro-2H-pyran-4-yl)amino)-7H-pyrrolo[2,3-d] pyrimidine-5-carbonitrile] | < 0.1 µM | < 0.1 µM | < 0.05 µM
COc1cc(Nc2nc(NC3CCCCC3)c3c(C#N)c[nH]c3n2)ccc1-c1ccnn1C [Example 121, 4-(cyclohexylamino)-2-((3-methoxy-4-(1-methyl-1H-pyrazol-5-yl)phenyl)amino)-7H-pyrrolo[2,3-d] pyrimidine-5-carbonitrile] | < 0.1 µM | < 0.1 µM | < 0.05 µM
COc1cc(Nc2nc(NC3CCOCC3)c3c(C#N)c[nH]c3n2)ccc1-c1ccnn1C [Example 119, 2-((3-methoxy-4-(1-methyl-1H-pyrazol-5-yl)phenyl)amino)-4-((tetrahydro-2H-pyran-4-yl)amino)-7H-pyrrolo[2,3-d] pyrimidine-5-carbonitrile] | < 0.1 µM | < 0.1 µM | < 0.05 µM

Now from value to compound:

GI50 (MDA-MB-231 cells) | GI50 (SHP-77) | IC50 (TTK) | SMILES
< 0.1 µM | < 0.1 µM | < 0.05 µM | Cn1nccc1-c1ccc(Nc2nc(NC3CC3)c3c(C#N)c[nH]c3n2)c2c1OCCO2 [Example 99, 4-(cyclopropylamino)-2-((8-(1-methyl-1H-pyrazol-5-yl)-2,3-dihydrobenzo[b][1,4]dioxin-5-yl)amino)-7H-pyrrolo[2,3-d] pyrimidine-5-carbonitrile]
< 0.1 µM | < 0.1 µM | < 0.05 µM | Cn1nccc1-c1ccc(Nc2nc(NC3CCC(F)(F)C3)c3c(C#N)c[nH]c3n2)c2c1OCCO2 (stereo not drawn) [Example 116, 4-((3,3-difluorocyclopentyl)amino)-2-((8-(1-methyl-1H-pyrazol-5-yl)-2,3-dihydrobenzo[b][1,4]dioxin-5-yl)amino)-7H-pyrrolo[2,3-d] pyrimidine-5-carbonitrile]
0.1 to 1 µM | 0.1 to 1 µM | 0.2 to 1 µM | Cn1nccc1-c1ccc(Nc2nc(NC3CCCC3)c3c(C(F)(F)F)c[nH]c3n2)c2c1OCCO2 [Example 133, N^4-cyclopentyl-N^2-(8-(1-methyl-1H-pyrazol-5-yl)-2,3-dihydrobenzo[b][1,4]dioxin-5-yl)-5-(trifluoromethyl)-7H-pyrrolo[2,3-d] pyrimidine-2,4-diamine]
< 0.1 µM | < 0.1 µM | < 0.05 µM | Cn1nccc1-c1ccc(Nc2nc(NC3CCOC(C)(C)C3)c3c(C#N)c[nH]c3n2)c2c1OCCO2 (stereo not drawn) [Example 109, 4-((2,2-dimethyltetrahydro-2H-pyran-4-yl)amino)-2-((8-(1-methyl-1H-pyrazol-5-yl)-2,3-dihydrobenzo[b][1,4]dioxin-5-yl)amino)-7H-pyrrolo[2,3-d] pyrimidine-5-carbonitrile]
0.1 to 1 µM | 0.1 to 1 µM | < 0.05 µM | Cn1nccc1-c1ccc(Nc2nc(NC3CCCC3)c3cc[nH]c3n2)c2c1OCCO2 [Example 114, N^4-cyclopentyl-N^2-(8-(1-methyl-1H-pyrazol-5-yl)-2,3-dihydrobenzo[b][1,4]dioxin-5-yl)-7H-pyrrolo[2,3-d] pyrimidine-2,4-diamine]
0.1 to 1 µM | 0.1 to 1 µM | < 0.05 µM | O=C1CCCN1c1ccc(Nc2nc(NC3CCOCC3)c3c(C(F)(F)F)c[nH]c3n2)c2c1OCCO2 [Example 108, 1-(8-((4-((tetrahydro-2H-pyran-4-yl)amino)-5-(trifluoromethyl)-7H-pyrrolo[2,3-d]pyrimidin-2-yl)amino)-2,3-dihydrobenzo[b][1,4]dioxin-5-yl)pyrrolidin-2-one]
< 0.1 µM | < 0.1 µM | 0.2 to 1 µM | Cn1nccc1-c1ccc(Nc2nc(NC3CCCCCC3)c3c(C#N)c[nH]c3n2)c2c1OCCO2 [Example 59, 4-(cycloheptylamino)-2-((8-(1-methyl-1H-pyrazol-5-yl)-2,3-dihydrobenzo[b][1,4]dioxin-5-yl)amino)-7H-pyrrolo[2,3-d] pyrimidine-5-carbonitrile]
